{"source": "paper PMC8305076", "about": "“Comprehensive Evaluation of Biological Effects of Pentathiepins on Various Human Cancer Cell Lines and Insights into Their Mode of Action” (International Journal of Molecular Sciences, 2021)", "test_system": "YAPC", "assay": "DCFDA flow cytometric ROS assay, acute", "format": "cell-based, human", "conditions": "25 µM, 15 min", "experimental": "According to the hypothesized mechanism of action (see Figure 3), pentathiepins can create oxidative stress via generation of reactive sulfur precursors. We have previously reported that a representative pentathiepin can increase the intracellular levels of ROS in two cancer cell lines. This effect was thus further evaluated with the new compounds in seven cell lines (Figure 8). The cells were incubated for 15 min with 25.0 µM pentathiepin and subsequently analyzed by using the intracellular ROS sensor 2′,7′-dichlorodihydrofluorescein diacetate (DCFDA) by flow cytometry.\nIn order to quantify intracellular ROS, we performed a flow cytometric assay based on the ROS-sensor 2′,7′-dichlorofluorescein diacetate (DCFDA). For acute effects of pentathiepins on intracellular ROS levels, the cells were stained with DCFDA first and subsequently incubated with 25 µM of compound for 10 min. […] Per condition, 250,000 cells were seeded in 2 mL of medium per well of a 6-well plate and allowed to adhere overnight. For measurement of acute ROS, the cells were stained with 1 mL of a 20 µM DCFDA-PBS solution for 30 min under standard incubation conditions. Afterwards, the solution was discarded, and the monolayer washed twice with 1 mL of PBS before 3 mL of medium containing 25 µM of pentathiepin was added for 10 min at 37 °C. After removing the solution and washing again with PBS, the cells were detached by using 0.5 mL of a diluted trypsin/EDTA-PBS solution (25%) and harvested with 1 mL of culture medium by carefully rinsing the wells. The cell suspension was transferred to 1.5 mL tubes, centrifuged for 5 min at 500× g, and washed with 1 mL of PBS. After removing the supernatant, each pellet was resuspended in 0.5 mL of PBS for measurement via the MACSquant Analyzer 10 at λEx/Em = 488/530 nm. Relative ROS levels resulting from treatment with pentathiepin were calculated by relating the fluorescence intensity of treated samples to the negative control. For the experiments covering periods of 24 and 48 h, the cells were incubated with the compounds first and stained with DCFDA afterwards. To assess the influence of additional GSH, we included 3 or 30 µM GSH to the medium containing 25 µM of pentathiepin, and the protocol was followed as described."}
{"smiles": "CCOc1c2c(c3ccc(C(=O)N4CCN(C(=O)c5ccc(F)cc5)CC4)cn13)SSSSS2", "note": "[Compound 5, (6-Ethoxy-[1,2,3,4,5]pentathiepino[6,7-a]indolizin-9-yl)(4-(4-fluorobenzoyl)piperazinyl)methanone]", "values": [{"measurement": "intracellular ROS levels", "value": "the only increase was monitored after incubation with 5"}]}
